We go through two compounds from US20060258754A1, “Method of treating endothelial dysfunction, oxidative stress and related diseases” (priority 2004, published 2006).

SMILES strings stand for the structures. Entries after “also recorded” stand apart in the source; their conditions may differ.

The subject of assay [1] is aortic rings. Put plainly: Rat aortic thoracic rings: acetylcholine relaxation after phenylephrine contraction, 4-week oral treatment. The format is in vivo, alloxan-diabetic male Wistar rats. Conditions: for endothelial dysfunction overall: 4-week oral administration versus saline treated alloxan diabetic rats; for effect on macrovascular endothelial dysfunction at highest acetyl choline concentrations: FIG. 2, FIG. 3; for effect on macrovascular endothelial dysfunction at intermediate acetylcholine concentration: acetylcholine 10^-7 M. The procedure:
Male Wistar rats, weighing between 230-250 g, fed regular chow, with free access to water were separated in four groups (n=10/each). The first two groups, termed normoglycemic, were treated with saline (0.1 mL/100 g/12 h) by the oral route (intragastric gavage) or untreated for four weeks. The second two groups, hyperglycemic, were treated with saline (0.1 mL/100 g/12 h) or treated with D-chiro-inositol (20 mg/kg/12 h) under the same protocol. […] Diabetes was induced by a single intravenous injection of 45 mg/kg alloxan as described by Sannomiya et al., 1997 ( ). Diabetes was diagnosed 96 h after injection by blood glucose assay >200 mg/dL. All protocols were approved by the local committee and follow the Guide for the Care and Use of Laboratory Animals published by the US National Institutes of Health (NIH Publication No. 85-23, revised 1996). After completion of blood pressure measurements and vascular mesenteric bed collection, animals were sacrificed by exsanguination while under anesthesia. The thoracic aorta was excised and rapidly cleansed of connective tissue in Petri dishes containing warmed and gassed (95% O2 in 5% CO2) Krebs-Henseleit solution (KHS). The aorta segment was cut in small rings (≈5 mm) and mounted horizontally in 5 mL chambers for isometric recording of tension. The resting tension was adjusted to 1 g and the tissue allowed to equilibrate for 1 hour with a 15 min washout period. Tissues were kept in KHS at 37° C., gassed with the O2, CO2 mixture and isometric recordings made with a force displacement transducer connected to a four-channel polygraph (Narco Biosystems, Houston, Tex., USA). After the equilibration period, tissues were contracted with a submaximal concentration of phenylephrine (≈60% maximal response) until two similar responses were obtained in order to ensure reproducibility of the contraction curves. […] The acetylcholine dose response curve was repeated after a 60 min washout interval. All experiments were performed in the presence of indomethecin (10 μM) and guanethidine (10 μM) to prevent the production of vasoactive prostanoids. At least 6 separate experiments will be performed each in duplicate.

Assay [2] relates to ROS generated by xanthine/xanthine oxidase. Put plainly: Superoxide assay in vitro: xanthine/xanthine oxidase, NBT reduction. To be noted: low micromolar concentrations, FIG. 10. The assay is classed as biochemical. The procedure: Superoxide radicals were generated by the reaction of xanthine (1 mM) and xanthine oxidase ([…]) in air-saturated potassium phosphate buffer (pH 7.8 at 25° C.). Superoxide anions were detected by nitroblue tetrazolium (NBT—50 μM) which undergoes reduction by O2-. to its formazan. The rate of reduction was monitored spectrophotometrically at 560 nm with an Ultrospec 1000 (Pharmacia Biotech, Cambridge, England). SOD-1, by scavanging O2-. Diminishes the rate of reduction of NBT. The volume was fixed at 2 mL. Each experiment was run in duplicate.

The conditions of assay [3]: several publications; cited from earlier work.
For assay [4] the following is noted: human PCOS; cited from earlier work.
Assay [5] concerns aortic rings. Put plainly: Acute incubation of diabetic rabbit aortic rings: acetylcholine relaxation. The arrangement: species or system alloxan-diabetic rabbits. To be noted: acute incubation 1 μM, medium and higher concentrations of acetyl choline, FIG. 7. The procedure: Male California rabbits, weighing 2-2.5 kg, were provided by the vivarium of the Biomedicine Institute-UFC. Diabetes was induced by intraperitoneal injection of alloxan (150 mg/kg) and only animals with plasma glucose concentration above 200 mg/dl were included in the study. Age-matched euglycemic rabbits were used as controls.
Kidneys and aortic rings are harvested from diabetic rabbits after 3 weeks of alloxan injection. They are perfused with KHS containing 1 μM D-chiro-inositol, pinitol, dibutyryl D-chiro-inositol, myo-inositol or saline for 1 hour. Dose response curves for acetylcholine are then performed following prior phenylephrine vasoconstriction as described. At least 6 separate experiments will be performed each in duplicate.
Kidneys and aortic rings were harvested from diabetic rabbits after 3 weeks of alloxan injection. The animals were sacrificed under sodium pentobarbital anesthesia (Hypnol®, 150-200 mg/kg). […]. Rabbit kidneys were obtained from male New Zealand rabbits (1-1.5 kg) after cannulation of the renal artery in situ. […] The alterations in perfusion pressure are continuously recorded in a four-channel polygraph (Narco Biosystems, Houston, Tex., USA) by means of a pressure transducer (P23 Gould Stratham, Oxnard, Calif., USA). […]

Setting [6] is: chronic oral administration, FIG. 3.
Setting [7] is: listed as dibutyryl D-chiro-inositol.

With `OC1C(O)C(O)C(O)C(O)C1O` [DCI, D-chiro-inositol], the endothelial dysfunction overall result in the assay with aortic rings [1] is given as “effective in improving endothelial dysfunction”; in the assay with aortic rings [1] (listed as D-chiro-inositol), “prevented the endothelial dysfunction”. Also, in the assay on aortic rings [1] (D-chiro-inositol 20 mg/kg/12 h by gavage four weeks, lower acetylcholine concentrations, saline diabetic 57.4±4.5%), the “relaxant response induced by acetylcholine, reversal of the pre-contractile state” value is given as 100%. Besides, the “effect on macrovascular endothelial dysfunction at highest acetyl choline concentrations” value in the assay with aortic rings [1] (chronic oral administration) was “partially restored to normal; also recorded: the most effective”. In addition, the “effect on macrovascular endothelial dysfunction at intermediate acetylcholine concentration” value was “followed by DCI, pinitol and myoinositol in descending order of effect” with aortic rings [1] (setting [6]); “active at intermediate acetyl choline concentrations” with aortic rings [1] (chronic oral administration, FIG. 3, listed as D-chiro-inositol). Moreover, the results for the “reduction of ROS generated by xanthine/xanthine oxidase” value in assay [2] and in assay [2] (listed as D-chiro-inositol) were “reduced ROS in a low micromolar concentration dependant manner” and “equally effective”, respectively. Further, in assay [3], the “hyperglycemia, triglyceridemia and glucose disposal” value was “effective decrease of hyperglycemia, triglyceridemia and enhanced glucose disposal”. Besides, the “ovulation, glucose tolerance and metabolic balance in PCOS” value in assay [4] is “effective in human PCOS in restoring ovulation, glucose tolerance and metabolic balance”.

`CCCC(=O)O[C@@H]1[C@@H](O)[C@@H](O)[C@H](O)[C@H](O)[C@H]1OC(=O)CCC` [dbDCI, 3,4-dibutyryl-D-chiroinositol]: the “effect on macrovascular endothelial dysfunction at highest acetyl choline concentrations” value in the assay on aortic rings [1] (chronic oral administration) is recorded as “the most effective”. The “effect on macrovascular endothelial dysfunction at lowest acetyl choline concentrations” value with aortic rings [1] (setting [6]) is listed as “most effective at the lowest acetyl choline concentrations”. Further, the “effect on macrovascular endothelial dysfunction at intermediate acetylcholine concentration” value with aortic rings [1] (setting [6]) is listed as “greatest effect”. Also, the entries for the “restoring vasorelaxant effect in aortic rings” value in the assay with aortic rings [5] and with aortic rings [5] (setting [7]) were “more effective than myoinositol” and “clearly more effective than myo-inositol”, respectively. For the same compound, the results for the “reduction of ROS generated by xanthine/xanthine oxidase” value in assay [2] and in assay [2] (setting [7]) were “reduced ROS in a low micromolar concentration dependant manner; also recorded: statistically more effective than the other 3 inositols” and “statistically more effective than the other 3 inositols”, respectively.
